This is an account of results in ChEMBL document CHEMBL1153681 (Bioorg Med Chem Lett, 1992).

In general, IC50 refers to the concentration that inhibits the measured activity by half. Read a low IC50 as greater potency in that assay.

For assay [1], the target named is Delta-type opioid receptor (Rattus norvegicus, UniProt P33533). Nature of the assay: Evaluated for its affinity towards Opioid receptor delta 1 in rat fore brain by displacing the radioligand [3H]DPDPE.
In a further assay the target is Mu-type opioid receptor (Rattus norvegicus, UniProt P33535).
Sequence of Mu-type opioid receptor (P33535 whole entry): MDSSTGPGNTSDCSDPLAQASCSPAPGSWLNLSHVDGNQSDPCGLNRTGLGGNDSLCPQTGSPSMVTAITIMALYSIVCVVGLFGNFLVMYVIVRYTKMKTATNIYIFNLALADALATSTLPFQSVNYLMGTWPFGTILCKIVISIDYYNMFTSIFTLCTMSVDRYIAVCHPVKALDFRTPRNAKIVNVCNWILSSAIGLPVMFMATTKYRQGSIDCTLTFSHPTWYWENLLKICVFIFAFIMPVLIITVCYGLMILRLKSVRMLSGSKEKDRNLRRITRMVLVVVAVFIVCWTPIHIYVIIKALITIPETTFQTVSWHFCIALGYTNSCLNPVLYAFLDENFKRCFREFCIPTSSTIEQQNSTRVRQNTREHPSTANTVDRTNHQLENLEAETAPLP
A further assay is filed under the species Mus musculus. Nature of the assay: Evaluated for its ability to inhibit electrically induced contractions in the mouse vas deferens (MVD). The class given is functional, organism-based.
For a further assay, the species on record is Cavia porcellus. Nature of the assay: Evaluated for its ability to inhibit electrically induced contractions in the guinea pig ileum (GPI). It is filed as functional, organism-based.
The nature of assay [2]: Ratio of the ability to inhibit electrically induced contractions in the mouse vas deferens (MVD) to that of the guinea pig ileum (GPI). It is filed as functional.

Sequence of Delta-type opioid receptor (P33533 whole entry): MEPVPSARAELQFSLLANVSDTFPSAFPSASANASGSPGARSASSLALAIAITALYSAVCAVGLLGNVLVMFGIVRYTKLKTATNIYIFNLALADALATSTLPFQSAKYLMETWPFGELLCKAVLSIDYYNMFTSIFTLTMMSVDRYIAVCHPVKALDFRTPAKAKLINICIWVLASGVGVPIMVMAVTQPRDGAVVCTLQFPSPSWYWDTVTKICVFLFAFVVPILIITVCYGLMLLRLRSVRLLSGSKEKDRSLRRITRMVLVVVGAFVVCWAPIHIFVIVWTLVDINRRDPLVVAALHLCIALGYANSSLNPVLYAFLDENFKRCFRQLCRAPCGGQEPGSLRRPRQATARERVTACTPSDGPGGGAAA
Description for Mu-type opioid receptor: Evaluated for its affinity towards Opioid receptor mu 1 in rat forebrain by displacing the radioligand [3H]sufentanil.

With `C[C@H](NC(=O)[C@@H](N)Cc1ccc(O)cc1)C(=O)N[C@H]1Cc2ccccc2CN(CC(=O)N[C@@H](Cc2ccc(O)cc2)C(=O)N2CCC[C@H]2C(=O)N[C@@H](CO)C(N)=O)C1=O`, the IC50 amounted to 17.4 nM in assay [1], 11 nM against Mu-type opioid receptor, 0.66 nM in the assay filed under Mus musculus and 10.8 nM in the assay filed under Cavia porcellus. For the same compound, the Ratio in assay [2] is 0.06.
`CC(C)[C@H](NC(=O)[C@H](CC(=O)O)NC(=O)[C@H](Cc1ccccc1)NC(=O)[C@@H](C)NC(=O)[C@@H](N)Cc1ccc(O)cc1)C(=O)N[C@H](C(=O)NCC(N)=O)C(C)C` [DELTORPHIN C]: the IC50 was 0.32 nM in the assay filed under Mus musculus and at least 3000 nM in the assay listed under Cavia porcellus. For the same compound, in assay [2], the Ratio result is recorded as “<=0.0001”.
Turning to `C[C@@H](NC(=O)[C@@H](N)Cc1ccc(O)cc1)C(=O)N[C@@H](Cc1ccccc1)C(=O)NCC(=O)N[C@@H](Cc1ccc(O)cc1)C(=O)N1CCC[C@H]1C(=O)N[C@@H](CO)C(N)=O` [DERMORPHIN], the IC50 amounted to 2.4 nM at Mu-type opioid receptor and 1.06 nM in the assay filed under Cavia porcellus.
